Results taken from patent US4695576A, “L-N-n-propylpipecolic acid-2,6-xylidide” (priority 1985, dated 1987).

Tests used:
tissue = experiment: Tissue toxicity limits (Trypan blue test, threshold of tissue irritancy); type: in vivo; conditions: in vivo
Text: The toxicity of the homologous series of N-alkylpipecolic acid-2,6-xylidides increases step wise and quickly with the lengthening of the alkyl chain. This is manifest from Table 1 set forth below, which compares racemic mixtures of alkyl homologues having from 1 to 5 carbon atoms.
*Trypan blue test; Hoppe et al. (1950), 39, 147-151 "Use of Trypan Blue
and Rabbit Eye Tests For Irritation", J. Amer. Pharm. Assoc. (Scient.
Ed.), the values are approximate threshold values of tissue irritancy.

[1] = test system: peripheral nerve endings of the epidermis; experiment: Intracutaneous wheals, infiltration anesthesia on forearms of man; type: in vivo; conditions: 12 healthy volunteers, pinprick
Text: By use of intracutaneous wheals it is possible to measure the analgesic effect of an anesthetic on the peripheral nerve endings of the epidermis.
This technique gives information about:
(1) The duration of anesthesia.
^1 Infiltration anesthesia on forearms of man. The test solutions wer
injected intracutaneously on the dorsum of the forearms of 12 healthy
volunteers, 20-25 years old. Three wheals were made on each arm in a
rotating system in a doublebind fashion. The local anesthetic effect was
tested using a pinprick technique. The "duration of anesthesia" was
defined as the time during which none out of six pinpricks into the wheal
was felt. The method has been described by Dhuner et al. (1972). […]

ulnar volar nerves = experiment: Finger blockade, digital nerve blocks in man; type: in vivo; conditions: for Time of onset, finger blockade: time from injection to complete analgesia
Description: ^2 Digital nerve blocks in man. The test solutions were injected to
block the ulnar volar nerves on the 2nd and 4th fingers of the same
volunteers who had participated in the intracutaneous wheal tests
described above. The tests were carried out in a double blind fashion in
rotating system, so that each solution was used with equal frequency on
each of the blocked fingers. A total of for injections 1.0 ml per
injection, was done in each subject. One week later the procedure was
repeated in the same subjects using the remaining test solutions. This
method has been described by Dhuner et al. (1972) (for citation see Table
2 footnote 1). To measure the efficacy and duration of the blocks, the
individual fingers were pricked rapidly 10 times with a needle algesimete
and the number of painful pricks noted. Each finger was tested every five
minutes until complete recovery. The time of complete anesthesia has been
called "duration of anesthesia".
*i.e. the time from injection to complete analgesia?
**i.e. the number of successful anesthesias of total number of
anesthesias performed (no anesthesia is possible if the ulnar volar nerve
are not contacted by the anesthetic).

in vivo = conditions: mouse, iv, read-out: LD50 I.v. (intravenous)

SMILES	Analgesia-duration, intracutaneous wheals ([1]; Conc. 0.5%)	Analgesia-duration, finger blockade (ulnar volar nerves; Concentration 1.0%)	Frequency (successful anesthesias of total performed) (ulnar volar nerves; Concentration 1.0%)	Time of onset, finger blockade (ulnar volar nerves; Concentration 1.0%)	Analgesia-duration, finger blockade (ulnar volar nerves; Concentration 0.5%)	Frequency (successful anesthesias of total performed) (ulnar volar nerves; Concentration 0.5%)	Time of onset, finger blockade (ulnar volar nerves; Concentration 0.5%)	other results
Cc1cccc(C)c1NC(=O)C1CCCCN1C (racemic) [1 R, N--methylpipecolic acid-2,6-xylidide]	65 ± 9 min	102 ± 22 min	13/13	7 ± 2 min	–	–	–	Tissue toxicity limits in % (tissue): 3.5%
Cc1cccc(C)c1NC(=O)[C@H]1CCCCN1C [1 D]	53 ± 8 min	71 ± 13 min	9/13	7 ± 2 min	–	–	–	–
Cc1cccc(C)c1NC(=O)[C@@H]1CCCCN1C [1 L]	68 ± 11 min	124 ± 21 min	11/12	7 ± 3 min	–	–	–	–
CCN1CCCC[C@@H]1C(=O)Nc1c(C)cccc1C [2 D]	–	–	–	–	112 ± 21 min	10/13	9 ± 3 min	Analgesia-duration, intracutaneous wheals ([1]; Conc. 0.25%): 58 ± 11 min
CCN1CCCC[C@H]1C(=O)Nc1c(C)cccc1C [2 L]	–	–	–	–	141 ± 18 min	11/13	9 ± 2 min	–
CCN1CCCCC1C(=O)Nc1c(C)cccc1C (centres unmarked) [2 R, N--ethylpipecolic acid-2,6-xylidide]	–	–	–	–	123 ± 19 min	12/12	10 ± 1 min	Tissue toxicity limits in % (tissue): 3.0%; LD50 (in vivo): 21 mg/kg
CCCN1CCCC[C@@H]1C(=O)Nc1c(C)cccc1C [3 D]	–	–	–	–	–	–	–	Analgesia-duration, intracutaneous wheals ([1]; Conc. 0.25%): 81 ± 14 min; Analgesia-duration, finger blockade (ulnar volar nerves; Concentration 0.25%): 175 ± 21 min; Frequency (successful anesthesias of total performed) (ulnar volar nerves; Concentration 0.25%): 7/8; Time of onset, finger blockade (ulnar volar nerves; Concentration 0.25%): 14 ± 3 min
